Patent US20080193379A1, “Radioactive Diagnostic Imaging Agent” (Nihon Medi-Physics Co., Ltd., priority 2005, published 2008)

Tests used:
[1] = as injection additive; cited from earlier work
[2] = Radiolysis stability of 18F-FDG solutions with mannitol: radiochemical purity by TLC (Examples 13-18, Comparative Example 2); format: physicochemical; conditions: added at 2.5 mmol/L or higher concentrations
Experimental: The same procedure as in Comparative Example 1 and Examples 1 through 12 was repeated to obtain a ^18F-FDG stock solution (radioactivity=126.3 GBq). To the ^18F-FDG stock solution, physiological saline was added for dilution so that the resulting solution had 92.5 MBq/mL 4.5 hours after preparation. This gave a ^18F-FDG solution.
To 2 mL of the above-obtained ^18F-FDG solution, the mannitol solutions having different concentrations shown in Table 3 were each added in amounts shown in Table 3, and mixed at room temperature to prepare respective sample solutions.
The above-obtained samples were subjected to TLC analysis on the below conditions immediately after the preparation of ^18F-FDG solution (Comparative Example 2 only), and 4.5 and 8.5 hours after the preparation. Radiochemical purity was obtained based on the area percentage of the ^18F-FDG peak. The radiochemical purity at each time point was compared to one another to evaluate stability of the samples.
TLC plate=Silica Gel 60 F254 (under trade name, manufactured by Merck & Co., Inc.)
Developing solvent=acetonitrile/water=19:1
Detector=Radiochromanizer (JTC-R75-21361, manufactured by Aloka)

glucose transporters = conditions: reported by Heli Teerijoki et al. and A. N. Ouraishi et al.; cited from earlier work
[3] = aqueous solution; reported by Sara Goldstein et al.; cited from earlier work

SMILES | Maximum dose for intravenous injection [1] [mg] | Prevention of the decrease in radiochemical purity of 18F-FDG caused by radiolysis [2] | Substrate for glucose transporters (glucose transporters) | Scavenger of OH radicals [3]
O=C(CO)[C@@H](O)[C@H](O)[C@H](O)CO [fructose] | 900 | – | – | –
OC[C@H]1O[C@@H](O[C@H]2[C@H](O)[C@@H](O)C(O)O[C@@H]2CO)[C@H](O)[C@@H](O)[C@H]1O (stereo partly drawn) [lactose] | 1250 | – | – | –
OC[C@H]1O[C@H](O[C@H]2[C@H](O)[C@@H](O)[C@H](O)O[C@@H]2CO)[C@H](O)[C@@H](O)[C@@H]1O [maltose] | 10000 | – | – | –
OC[C@@H](O)[C@@H](O)[C@H](O)[C@H](O)CO [mannitol] | 1200 | can significantly prevent the decrease in the radiochemical purity | does not serve as a substrate for glucose transporters | acts as a scavenger of OH radials
OC[C@@H](O)[C@@H](O)[C@H](O)[C@@H](O)CO [sorbitol] | 1500 | – | – | –
OC[C@@H](O)[C@H](O)[C@@H](O)CO [xylitol] | 200 | – | – | –
